{
  "source": "patent US20190231783A1",
  "about": "“PHARMACEUTICAL FORMULATIONS” (Corvus Pharmaceuticals, Inc., priority 2018, published 2019)",
  "key": {"[1]": {"assay": "Chemical characterization (assay, impurities) of drug-layered beads and capsules, initial and at CRT/ACC storage", "type": "physicochemical", "source_text": "The amount of the smaller size drug nanoparticles increased as the level of coating increased, with the smaller hump representing the particle size distribution of the drug nanoparticle suspension and the larger hum representing the particle size distribution of the sugar spheres, which largely remained unchanged throughout the process. […] The particle size distribution of the drug nanoparticles on sugar spheres was similar to that of the particle size distribution of drug nanoparticles in the film.\nThe assay was low, most likely due to the size of the batch (200 grams) since the minimum amount of drug suspension had to be used, which is smaller than the optimum size for the Vector FL1 fluid bed.\nThe capsules were stored and monitored at controlled room temperature (CRT, 25° C./60% RH) and accelerated conditions (ACC, 40° C./75% RH), and evaluated for chemical characterization up to 3 months, as shown in Table 15C and Table 15D, respectively."}, "[2]": {"assay": "Particle size distribution by laser diffraction (nanomilled suspensions, cast films, layered beads)", "type": "physicochemical", "conditions": "crystalline drug particles used to prepare Nanosuspension #001-35 (Table 13A)", "method": "“Particle size distribution” or “PSD” or “size distribution” refers to the size of particles present in their relative proportions in a sample, as measured by laser diffraction spectroscopy. In aspects, the particle size distribution refers to the particle size distribution of all the drug particles in the composition. The particle size distribution of a sample is measured by laser diffraction spectroscopy. Laser diffraction spectrometers are commercially available as, e.g., MASTERSIZER® 3000 from Malvern Instruments Ltd, and HORIBA® LA-950 by Horiba Instruments, Inc., Irvine Calif. For laser diffraction spectroscopy, particle size distribution is generally described by D values, such as D90. In aspects, the laser diffraction spectroscopy can be analyzed by the Fraunhofer theory. In aspects, the laser diffraction spectroscopy can be analyzed by the Mie scattering theory. In aspects, the laser diffraction spectroscopy can be analyzed by a combination of the Fraunhofer theory and the Mie scattering theory.\nParticle size measurements were obtained using water as dispersing media in the fraction cell of the laser diffraction particle size analyzer and analyzed using a refractive index of 1.60+0.01i in water.\nSamples at different time points were withdrawn and checked for particle size distribution by laser diffraction and appearance by optical microscopy."}, "[3]": {"assay": "Assay and related substances by HPLC of nanosuspensions, after milling and on storage", "type": "physicochemical", "description": "Assay and Related Substance Testing. Formulations B, D, and E were tested for assay and related substances (RS) to detect the compatibility with the excipients. […] Assay/RS was not determined at TO for this study."}, "[4]": {"assay": "Dissolution of un-milled vs nano-milled Formula (III) suspensions (sink and non-sink)", "type": "physicochemical", "description": "Dissolution at non-sink conditions was tested to further compare un-milled and milled Formula (III) formulations."}, "[5]": {"assay": "Assay (% LC) and impurities by HPLC of HME extrudates and tablets, initial and on storage", "from_the_text": "“Total impurities” refers to in the common pharmaceutical nomenclature as the total sum of all measured impurities and degradation products from the drug substance and is also referred to as total related substances. […] A gradient method was used with 0.1% (V/V) methanesulfonic acid in water as the first mobile phase and acetonitrile as the second. A C18 column with UV detection at 225 nm was used. Acetonitrile-water mixture was used for dilution of the samples.\nChemical stability. […] The impurity profile of the formulations was compared to the crystalline Formula (III) used in the HME extrudate (Table 2C).\nThermal degradation was closely monitored due to the high processing temperature. […] Selected major impurities in the extrudate that could be attributed to the processing condition were summarized based on the relative retention time (RRT) and shown in Table 2E.\nChemical Characterization of stability samples."}, "[6]": {"assay": "Solubility / kinetic solubility in pH 6.8 phosphate buffer", "type": "physicochemical", "conditions": "37 °C, thermodynamic from solid", "description": "Kinetic solubility is a supersaturated or metastable and time-dependent state as opposed to true time-independent equilibrium solubility. […] The bottle was rotated at 50 rpm up to 4 hours at 37° C. Samples were collected at 5, 10, 15, 20, 25, 30, 45, 60, 75, 90, 120, 180, and 240 minutes time points. The samples were filtered using […] PVDF filter and diluted with acetonitrile in 1:1 ratio immediately. The samples were analyzed by HPLC. The concentration of phosphate buffer had only a minor effect on the solubility of the DS or the amorphous solid dispersion (extrudate), and the surfactant made it more difficult to distinguish the enhancement of the solubility.\nSolubility Studies. […] Amorphous solid dispersions with 30% drug loading of Formula III with three different stabilizing polymers were evaluated. In particular, excess sample (either Formula (III) milled extrudate or Formula (III) as a control) was added into the bottle containing 120 mL of each media to ensure saturation.\nAt the same time, SLS diminished the discrimination between the crystalline and amorphous forms. Thus it is advisable to avoid SLS in the dissolution media for kinetic solubility studies."}, "[7]": {"assay": "Assay and impurities of MBP dispersions, initial and on storage at 40° C./75% RH", "type": "physicochemical", "conditions": "initial (MBP) or API", "description": "Chemical Characterization of samples.\nStability Studies. All initial samples of the MBP were kept in closed 75 mL HDPE bottles and monitored at 40° C. and 75% relative humidity (RH) for up to 3 months. The physical state and chemical stability were reported by XRPD, and assay and impurity. […] The assay and impurity results from the MBP dispersions, stored at 40° C. and 75% relative humidity closed conditions for up to 3 months, and at 40° C. and 75% relative humidity open conditions for up to 2 weeks are reported in the Tables 9D and 9E below."}, "[8]": {"conditions": "initial (formulation) or API as used, listed as API"}},
  "note": "Where “and” joins values, the source holds several entries; their conditions need not be identical. Equal entries are not always repeated.",
  "data": [
    {"smiles": "Cc1ccc(-c2nc(N)nc3c2nnn3Cc2cccc(COC3CCOC3)n2)o1", "note": "(stereo not shown) [Formula (III)]", "values": [
      {"measurement": "Total Impurities", "setting": "[1]; API", "value": 0.8, "unit": "%"},
      {"measurement": "Total Impurities %", "setting": "[1]; initial chemical characterization of the beads (Table 14C)", "value": 0.80, "unit": "%"},
      {"measurement": "Particle Size Distribution D10", "setting": "[2]", "value": 73, "unit": "nm"},
      {"measurement": "Particle Size Distribution D50", "setting": "[2]", "value": 169, "unit": "nm"},
      {"measurement": "Particle Size Distribution D90", "setting": "[2]", "value": 714, "unit": "nm"},
      {"measurement": "Potency (Assay %)", "setting": "[3]; T = 0 (formulation) or API", "value": 100, "unit": "%"},
      {"measurement": "% Impurity by RRT 0.80", "setting": "[3]; T = 0 or API", "value": 0.2, "unit": "%"},
      {"measurement": "% Impurity by RRT 0.94", "setting": "[3]; T = 0 or API", "value": 0.2, "unit": "%"},
      {"measurement": "% Impurity by RRT 10.6", "setting": "[3]; T = 0 or API", "value": 0.2, "unit": "%"},
      {"measurement": "Total Impurity %", "setting": "[3]; T = 0 or API", "value": 0.6, "unit": "%"},
      {"measurement": "Related substances (RS) of the standard", "setting": "[3]; standard, unmilled", "value": 0.6, "unit": "%"},
      {"measurement": "Solubility dependence on pH", "setting": "[4]", "value": "increases significantly below pH 3"},
      {"measurement": "Time to complete dissolution", "setting": "[4]; acid medium, sink condition", "value": 45, "unit": "min"},
      {"measurement": "Solubility of a 100 mg dose in 900 mL phosphate buffer at pH 6.8", "setting": "[4]; non-sink condition", "value": "not fully soluble"},
      {"measurement": "Total Impurities", "setting": "[5]; initial (Table 8E)", "value": 0.8, "unit": "%"},
      {"measurement": "Total Impurities %", "setting": "[5]; [8]", "value": "0.82% and 0.818% and 0.80%"},
      {"measurement": "Total Specified Impurities %", "setting": "[5]; [8]", "value": "0.46% and 0.462%"},
      {"measurement": "solubility at 240 min", "setting": "[6]; phosphate buffer with sodium lauryl sulphate, pH 6.8, aqueous with cosolvent or surfactant or cyclodextrin, 10 mM Phosphate buffer, pH 6.8, 0.5% SLS", "value": 419, "unit": "µg/mL"},
      {"measurement": "solubility at 240 min", "setting": "[6]; phosphate buffer with sodium lauryl sulphate, pH 6.8, aqueous with cosolvent or surfactant or cyclodextrin, 10 mM Phosphate buffer, pH 6.8, 1.0% SLS", "value": 593, "unit": "µg/mL"},
      {"measurement": "solubility at 240 min", "setting": "[6]; phosphate buffer with sodium lauryl sulphate, pH 6.8, aqueous with cosolvent or surfactant or cyclodextrin, 50 mM Phosphate buffer, pH 6.8, 0.5% SLS", "value": 386, "unit": "µg/mL"},
      {"measurement": "solubility at 240 min", "setting": "[6]; phosphate buffer with sodium lauryl sulphate, pH 6.8, aqueous with cosolvent or surfactant or cyclodextrin, 50 mM Phosphate buffer, pH 6.8, 1.0% SLS", "value": 627, "unit": "µg/mL"},
      {"measurement": "solubility at 240 min", "setting": "[6]; phosphate buffer, pH 6.8, aqueous buffer, 10 mM Phosphate buffer, pH 6.8, No Surfactant", "value": 23, "unit": "µg/mL"},
      {"measurement": "solubility at 240 min", "setting": "[6]; phosphate buffer, pH 6.8, aqueous buffer, 50 mM Phosphate buffer, pH 6.8, No Surfactant", "value": 19, "unit": "µg/mL"},
      {"measurement": "Total Impurity %", "setting": "[7]", "value": 0.82, "unit": "%"},
      {"measurement": "Total Specified Impurity %", "setting": "[7]", "value": 0.46, "unit": "%"}
    ]}
  ]
}
